The test system of test [1] is HTT. As to the kind of experiment: Gene panel canonical junction qPCR assay, HTT CJ mRNA (Table 7). It counts as cell-based, human. Conditions: Homo sapiens, read-out: HTT CJ mRNA decrease IC50. Put shortly:
(§1)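 Canonical-junction transcript decrease reported as IC50 from a 4-parameter logistic fit of percentage response, derived from 2^(−ΔΔCt) versus housekeeper (GAPDH/GUSB/PPIA) and DMSO control using preset ΔCt windows. Readout by cDNA synthesis and qPCR with exon-junction-overlapping probesets in compound-treated K562 or A673 cells.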
(In general: Real-time PCR tracks product formation cycle by cycle.)

Test [2] relates to MYB. As to the kind of experiment: Gene panel canonical junction qPCR assay, MYB CJ mRNA (Table 7). Conditions: Homo sapiens, read-out: MYB CJ mRNA decrease IC50. It counts as cell-based. An outline of the steps:
as §1

Test [3] has as its system HTT. As to the kind of experiment: RT-qPCR splicing assay, HTT AJ/CJ mRNA. It counts as cell-based, human. The conditions noted are these: Homo sapiens, 24 h, A673 or K562 cells; for IC50: decrease in canonical junction mRNA; for AC50: increase in alternative junction mRNA. An outline of the steps:
(§2)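 Following 24 h compound exposure at 37 °C (11 points, 3-fold, highest 10 uM; DMSO ≤0.25%), A673 or K562 lysates underwent RT-qPCR for exon-inclusion (AJ) and canonical (CJ) junctions of HTT and MYB. Relative quantification used housekeeping-gene ΔCt and DMSO-normalized ΔΔCt, converted to percentage response.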

The next test concerns SMN2. Kind of test: Gene panel canonical junction qPCR assay, SMN2 CJ mRNA (Table 7). It is filed as cell-based. The conditions noted are these: Homo sapiens, read-out: SMN2 CJ mRNA decrease IC50. Put shortly:
as §1

A further test has as its system Target C. As to the kind of experiment: Gene panel canonical junction qPCR assay, Target C CJ mRNA (Table 7). It is filed as cell-based, human. Conditions: Homo sapiens, read-out: Target C CJ mRNA decrease IC50. Put shortly: as §1
The test system of test [4] is MYB. As to the kind of experiment: RT-qPCR splicing assay, MYB AJ/CJ mRNA. It counts as cell-based. Conditions: Homo sapiens, A673 or K562 cells, 24 hours; for IC50: decrease in canonical junction mRNA; for AC50: increase in alternative junction mRNA. An outline of the steps: as §2

SMILES strings stand for the structures.

In general, IC50 refers to the point on the concentration scale where inhibition reaches its midpoint. As a reminder, the AC50 is the concentration at which the activity in the assay is half-maximal. A high value points to activity only at high concentration.

`COc1cc(-c2ccc3c(c2)COc2nc(N(C)[C@H]4C[C@@H]5CC(F)(F)[C@H](C4)N5)ccc2-3)cnn1` [Compound 247, (1R,3S,5S)-6,6-difluoro-N-[8-(6-methoxypyridazin-4-yl)-6H-isochromeno[3,4-b]pyridin-3-yl]-N-methyl-8-azabicyclo[3.2.1]octan-3-amine]: the IC50 with HTT [1] was < 0.1 µM; in the test with MYB [2] it was 0.1 to 1 µM; with HTT [3], < 0.1 µM; in the test on SMN2, < 0.1 µM; in the test on Target C, 0.1 to 1 µM; in the test on MYB [4], 0.1 to 1 µM. For the same compound, the AC50 in the test with HTT [3] is < 0.1 µM; in the test with MYB [4] it was > 10 µM.
On to `CN(c1ccc2c(n1)OCc1cc(-c3cn[nH]c3)ccc1-2)C1CC2CC(F)(F)C(C1)N2` (stereo not drawn) [Compound 248, 6,6-difluoro-N-methyl-N-[8-(1H-pyrazol-4-yl)-6H-isochromeno[3,4-b]pyridin-3-yl]-8-azabicyclo[3.2.1]octan-3-amine], for which the concentration for half-maximal inhibition (IC50) fell in the range of 0.1 to 1 µM in the test with HTT [1]; 1 to 10 µM in the test with MYB [2]; 0.1 to 1 µM in the test with HTT [3]; 0.1 to 1 µM in the test with SMN2; 1 to 10 µM in the test on Target C; 1 to 10 µM with MYB [4]. Also, the half-maximal activity concentration (AC50) with HTT [3] lay within 0.1 to 1 µM; with MYB [4], 1 to 10 µM.
As to `c1cnn(-c2ccc3c(c2)COc2nc(N4CCC(NC5CC5)C4)ccc2-3)n1` (stereo not drawn) [Compound 249, N-cyclopropyl-1-[8-(1,2,3-triazol-2-yl)-6H-isochromeno[3,4-b]pyridin-3-yl]pyrrolidin-3-amine], the IC50 in the test with HTT [1] was 1 to 10 µM; in the test on MYB [2], > 10 µM; in the test with HTT [3], 1 to 10 µM; in the test on SMN2, 0.1 to 1 µM; in the test with Target C, > 10 µM; in the test with MYB [4], > 10 µM. For the same compound, the figures for the AC50 with HTT [3] and with MYB [4] were 1 to 10 µM and > 10 µM, respectively.
Consider `CC(C)(C)NC1CCN(c2ccc3c(n2)OCc2cc(-n4nccn4)ccc2-3)C1` (stereo not drawn) [Compound 250, N-tert-butyl-1-[8-(1,2,3-triazol-2-yl)-6H-isochromeno[3,4-b]pyridin-3-yl]pyrrolidin-3-amine 2,2,2-trifluoroacetate], for which the IC50 with HTT [1] fell in the range of 1 to 10 µM; in the test with MYB [2], 1 to 10 µM; in the test with HTT [3] it was 1 to 10 µM; in the test on SMN2 it was 0.1 to 1 µM; in the test with Target C, 1 to 10 µM; with MYB [4], 1 to 10 µM. Also, the values for the AC50 in the test on HTT [3] and in the test on MYB [4] were 0.1 to 1 µM and 1 to 10 µM, respectively.
As to `COc1cc(-c2ccc3c(c2)COc2nc(N4CCC(NC(C)(C)C)C4)ccc2-3)cnn1` (stereo not drawn) [Compound 251, N-tert-butyl-1-[8-(6-methoxypyridazin-4-yl)-6H-isochromeno[3,4-b]pyridin-3-yl]pyrrolidin-3-amine], the IC50 with HTT [1] is < 0.1 µM; in the test on MYB [2], 0.1 to 1 µM; in the test on HTT [3], < 0.1 µM; in the test on SMN2, < 0.1 µM; in the test on Target C, < 0.1 µM; in the test with MYB [4], 0.1 to 1 µM. The AC50 with HTT [3] was < 0.1 µM; in the test with MYB [4] it was 0.1 to 1 µM.
Regarding `CC1(NC2CCN(c3ccc4c(n3)OCc3cc(-n5nccn5)ccc3-4)C2)CC1` (stereo not drawn) [Compound 252, N-(1-methylcyclopropyl)-1-[8-(1,2,3-triazol-2-yl)-6H-isochromeno[3,4-b]pyridin-3-yl]pyrrolidin-3-amine], the IC50 in the test with HTT [1] was 0.1 to 1 µM; with MYB [2], 1 to 10 µM; with HTT [3] it was 0.1 to 1 µM; with SMN2, 0.1 to 1 µM; in the test with Target C, 1 to 10 µM; in the test on MYB [4], 1 to 10 µM. For the same compound, the AC50 with HTT [3] and in the test with MYB [4] was 1 to 10 µM each time.
As to `CC1(NC2CCN(c3ccc4c(n3)OCc3cc(-c5cn[nH]c5)ccc3-4)C2)CC1` (stereo not drawn) [Compound 253, N-(1-methylcyclopropyl)-1-[8-(1H-pyrazol-4-yl)-6H-isochromeno[3,4-b]pyridin-3-yl]pyrrolidin-3-amine], the half-inhibitory concentration (IC50) with HTT [1] was 0.1 to 1 µM; in the test with MYB [2], 0.1 to 1 µM; in the test with HTT [3], 0.1 to 1 µM; in the test with SMN2, < 0.1 µM; in the test on Target C it was 0.1 to 1 µM; in the test with MYB [4], 0.1 to 1 µM. Besides, the AC50 was < 0.1 µM in the test on HTT [3] and 0.1 to 1 µM in the test on MYB [4].
On to `COc1cc(-c2cc(F)c3c(c2)COc2nc(N(C)[C@@H]4C[C@H]5CC[C@@H](C4)N5)ccc2-3)cnn1` [Compound 254, (1R,3S,5S)—N-[10-fluoro-8-(6-methoxypyridazin-4-yl)-6H-isochromeno[3,4-b]pyridin-3-yl]-N-methyl-8-azabicyclo[3.2.1]octan-3-amine; bis(trifluoroacetaldehyde)], for which the IC50 was < 0.1 µM in the test on HTT [1]; 0.1 to 1 µM in the test on MYB [2]; < 0.1 µM in the test with HTT [3]; < 0.1 µM in the test with SMN2; 0.1 to 1 µM in the test on Target C; 0.1 to 1 µM with MYB [4]. The values for the AC50 in the test with HTT [3] and in the test with MYB [4] were < 0.1 µM and 0.1 to 1 µM, respectively.
For the compound `COc1cc(-c2ccc3c(c2)COc2nc(N4CCC(NC5CC5)C4)ccc2-3)cnn1` (stereo not drawn) [Compound 255, N-cyclopropyl-1-[8-(6-methoxypyridazin-4-yl)-6H-isochromeno[3,4-b]pyridin-3-yl]pyrrolidin-3-amine], the IC50 fell in the range of 0.1 to 1 µM in the test on HTT [1]; 1 to 10 µM in the test on MYB [2]; 0.1 to 1 µM in the test with HTT [3]; 0.1 to 1 µM with SMN2; 1 to 10 µM with Target C; 1 to 10 µM in the test with MYB [4]. Also, the AC50 in the test with HTT [3] and in the test with MYB [4] was 1 to 10 µM throughout.
Turning to `COc1cc(-c2ccc3c(c2)COc2nc(N4CCC(NC5(C)CC5)C4)ccc2-3)cnn1` (stereo not drawn) [Compound 256, 1-[8-(6-methoxypyridazin-4-yl)-6H-isochromeno[3,4-b]pyridin-3-yl]-N-(1-methylcyclopropyl)pyrrolidin-3-amine], the IC50 with HTT [1] fell in the range of 0.1 to 1 µM; with MYB [2], 1 to 10 µM; in the test on HTT [3], 0.1 to 1 µM; in the test on SMN2, 0.1 to 1 µM; in the test on Target C, 0.1 to 1 µM; in the test with MYB [4], 1 to 10 µM. For the same compound, the AC50 with HTT [3] was in the range of 0.1 to 1 µM; in the test with MYB [4], 1 to 10 µM.
`CC(C)(C)N[C@@H]1CCN(c2ccc3c(n2)OCc2cc(-c4cn[nH]c4)ccc2-3)C1` [Compound 257, (3R)—N-tert-butyl-1-[8-(1H-pyrazol-4-yl)-6H-isochromeno[3,4-b]pyridin-3-yl]pyrrolidin-3-amine]: the IC50 in the test with HTT [1] was < 0.1 µM; in the test on MYB [2], 0.1 to 1 µM; in the test with HTT [3] it was < 0.1 µM; in the test on SMN2, < 0.1 µM; with Target C, < 0.1 µM; with MYB [4] it was 0.1 to 1 µM. The half-maximal activity concentration (AC50) in the test on HTT [3] is < 0.1 µM; in the test with MYB [4] it was 0.1 to 1 µM.
As to `CC(C)(C)N[C@H]1CCN(c2ccc3c(n2)OCc2cc(-c4cn[nH]c4)ccc2-3)C1` [Compound 258, (3S)—N-tert-butyl-1-[8-(1H-pyrazol-4-yl)-6H-isochromeno[3,4-b]pyridin-3-yl]pyrrolidin-3-amine], the IC50 in the test on HTT [1] fell in the range of 0.1 to 1 µM; in the test on MYB [2], 1 to 10 µM; with HTT [3] it was 0.1 to 1 µM; with SMN2 it was 0.1 to 1 µM; in the test on Target C, 0.1 to 1 µM; in the test with MYB [4], 1 to 10 µM. Moreover, the AC50 in the test on HTT [3] and in the test on MYB [4] was 0.1 to 1 µM throughout.
Turning to `Fc1cc2c(cc1-c1cn[nH]c1)COc1nc(O[C@@H]3C[C@H]4CC[C@@H](C3)N4)ccc1-2` [Compound 260], the IC50 with HTT [1] is < 0.1 µM; in the test on MYB [2] it was 0.1 to 1 µM; in the test with HTT [3], < 0.1 µM; with SMN2 it was < 0.1 µM; in the test on Target C, 0.1 to 1 µM; in the test on MYB [4] it was 0.1 to 1 µM. In addition, the half-maximal activity concentration (AC50) with HTT [3] and with MYB [4] was < 0.1 µM each time.
For the compound `Cn1ncc(-c2ccc3c(c2)COc2nc(OC4CC5CC(F)(F)C(C4)N5)ccc2-3)cc1=O` (stereo not drawn) [Compound 261, 5-[3-({6,6-difluoro-8-azabicyclo[3.2.1]octan-3-yl}oxy)-6H-isochromeno[3,4-b]pyridin-8-yl]-2-methylpyridazin-3-one], the IC50 with HTT [1], with MYB [2], in the test with HTT [3], in the test on SMN2, with Target C and in the test on MYB [4] was > 10 µM in each case. Also, the AC50 in the test with HTT [3] and with MYB [4] was > 10 µM throughout.
As to `CC(C)Oc1cc(-c2ccc3c(c2)COc2nc(N4CCC(NC(C)(C)C)C4)ccc2-3)cnn1` (stereo not drawn) [Compound 263, N-tert-butyl-1-[8-(6-isopropoxypyridazin-4-yl)-6H-isochromeno[3,4-b]pyridin-3-yl]pyrrolidin-3-amine], the IC50 in the test on HTT [1], in the test with MYB [2], in the test on HTT [3], in the test on SMN2, in the test with Target C and in the test with MYB [4] was > 10 µM throughout. The AC50 in the test on HTT [3] and in the test with MYB [4] was > 10 µM in each case.

The record behind these values is patent US20240400584A1, “COMPOUNDS AND METHODS FOR MODULATING SPLICING” (REMIX THERAPEUTICS INC., priority 2021, published 2024).
